Assay [1] relates to Escherichia coli. In words: microbe, parasite or virus in culture.
The subject of assay [2] is Escherichia coli. As to the kind of experiment: microbe, parasite or virus in culture. The source holds these as a separate data set.
In assay [3] the target is T1, Microphthalmia-associated transcription factor (Homo sapiens, UniProt O75030).
T1 sequence (O75030 whole entry): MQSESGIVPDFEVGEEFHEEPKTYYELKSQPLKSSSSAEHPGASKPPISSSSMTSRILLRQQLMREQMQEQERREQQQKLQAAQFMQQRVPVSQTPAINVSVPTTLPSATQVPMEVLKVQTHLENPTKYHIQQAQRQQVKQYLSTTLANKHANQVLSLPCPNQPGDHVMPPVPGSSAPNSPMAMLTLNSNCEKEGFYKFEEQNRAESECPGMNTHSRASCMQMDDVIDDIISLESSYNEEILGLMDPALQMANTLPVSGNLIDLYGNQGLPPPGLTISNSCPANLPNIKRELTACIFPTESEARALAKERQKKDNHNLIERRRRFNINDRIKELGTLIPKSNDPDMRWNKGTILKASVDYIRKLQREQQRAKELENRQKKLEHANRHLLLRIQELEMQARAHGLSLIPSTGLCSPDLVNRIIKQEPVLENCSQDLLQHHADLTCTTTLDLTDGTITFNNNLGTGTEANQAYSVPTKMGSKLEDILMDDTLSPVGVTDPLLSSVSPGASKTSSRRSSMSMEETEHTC
In words: reducers of TRPM1 reporter luminescence, concentration series – cell-based, SK-MEL-5, cherry-picked, set 3, MITF inhibitor project, dose response (AID 493073).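 Further: SK-MEL-5 melanoma cells with luciferase driven by the MITF target TRPM1 promoter.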 It counts as functional.

The subject of assay [4] is A-375. In words: MITF: Counter assay: A375 proliferation Measured in Cell-Based System Using Plate Reader - 2084-03_Inhibitor_Dose_DryPowder_Activity. [Related pubchem assays (depositor defined):AID488944]. It counts as functional. To be noted: Homo sapiens.
The test system of assay [5] is A-375. As to the kind of experiment: proliferation inhibition in MITF-low A375 cells – cell-based, cherry-pick samples, set 2, counter-screen for MITF modulator project, dose response (AID 540335). It counts as functional. The following applies: Homo sapiens. (In general: A counterscreen serves to expose hits that act by an unwanted route or on another target.)
Assay [6] can be described thus: viability of PTEN-deleted HCT116 cells – cell-based, HCT116 PTEN knockout, dose response (AID 1047).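 Further: HCT116 colon tumor cells with PTEN knocked out; cells exposed to compound for 60 hours before readout; potency for loss of cell viability measured by luminescence.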 It counts as functional.
Assay [7] can be described thus: viability of HCT116 lacking mutant beta-catenin – cell-based, human colon tumor, dose response (AID 1045).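 Further: HCT116 colon tumor cells with beta catenin knocked out; cells exposed to compound for 60 hours.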 It counts as functional.
A further assay addresses Cytochrome P450 2D6 (Homo sapiens, UniProt P10635).

AC50 and EC50 data for 4 molecules are collected here from ChEMBL document CHEMBL1201862, “PubChem BioAssay data set” (2004).

Active and inactive are the calls of the source.

Cytochrome P450 2D6, sequence (P10635 whole entry): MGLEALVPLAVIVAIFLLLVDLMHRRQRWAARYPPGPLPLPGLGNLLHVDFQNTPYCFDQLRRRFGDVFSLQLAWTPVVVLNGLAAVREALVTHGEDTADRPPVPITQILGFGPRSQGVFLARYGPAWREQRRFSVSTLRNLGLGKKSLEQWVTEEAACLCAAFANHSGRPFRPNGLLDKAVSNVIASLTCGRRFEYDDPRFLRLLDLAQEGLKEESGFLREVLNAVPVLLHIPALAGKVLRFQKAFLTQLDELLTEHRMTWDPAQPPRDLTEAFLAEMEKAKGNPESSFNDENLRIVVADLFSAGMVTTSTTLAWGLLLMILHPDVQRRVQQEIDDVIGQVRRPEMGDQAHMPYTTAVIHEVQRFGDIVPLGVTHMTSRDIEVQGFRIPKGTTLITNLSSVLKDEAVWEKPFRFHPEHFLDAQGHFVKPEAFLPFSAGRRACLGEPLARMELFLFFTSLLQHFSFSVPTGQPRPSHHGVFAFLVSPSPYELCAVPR

The term AC50 denotes the concentration at which the activity in the assay is half-maximal. Consider `CCc1ccc2c(c1)cc(CN(Cc1ccco1)C(C)=O)c1nnnn12`, for which the figures for the concentration at half-maximal activity (AC50) in the assay on Escherichia coli [1] and in the assay with Escherichia coli [2] were 24.6 µM (active) and 98.8 µM (active), respectively.

As to `CC(C)C(c1nnnn1C1CCCC1)N1CCC(C(N)=O)CC1` (stereo unspecified), in the assay on Escherichia coli [2], the AC50 is 164 µM (active).

Consider `O=C(Cn1ncc(Cl)c(Cl)c1=O)NC1CCCCC1`, for which the figures for the half-maximal activity concentration (AC50) (in assay [3]; in the assay on A-375 [4]; with A-375 [5]) were 6.82 µM (active), > 35 µM (active) and > 35 µM (active), respectively.

Usually EC50 stands for the midpoint of the concentration-response curve. As for `O=C(N/N=C/c1cc([N+](=O)[O-])ccc1N1CCNCC1)c1ccc([N+](=O)[O-])cc1`, the EC50 in assay [6] is 11.1 µM (active); in assay [7], 12.1 µM (active). Also, the AC50 was 8.19 µM (active) in assay [3], 24.1 µM (active) with A-375 [4] and 25.1 µM (inconclusive) at Cytochrome P450 2D6.
